Results on 15 compounds are retold here after patent US20260317292A1, “SMALL MOLECULE THERAPY FOR DUCHENNE MUSCULAR DYSTROPHY” (The Regents of the University of California, priority 2023, published 2026).

The series concerns endogenous SSPN protein with an N-term fusion protein (C2C12 cells). Briefly: C2C12 HiBiT assay (SSPN-HiBiT myotubes, primary screen). Type of series: cell-based, murine. To be noted: treated day 2, harvested day 4 of differentiation; for SSPN-HiBiT fold change over vehicle: concentration not given; for activity in HiBiT assay: vs vehicle. On the procedure: FIG. 1. Activity of DDL-463, DDL-465 (A) and DDL-472 (B) in HiBiT assay. Comparison of activity of the new compounds with parent compound (OT-9m) and vehicle-treated cells. SSPN-HiBiT myotubes were treated on day 2 and harvested on day 4 of differentiation. R.U.=relative units normalized to protein concentration and vehicle control (DMSO). n=18. **p<0.01, ****p<0.0001, ns-difference is non-significant from the vehicle-treated cells.
Comparison of activity of the new compounds of quinolone series (DDL-494, DDL-495, DDL-496) with parent compound (DDL-449 (aka OT-9m)) and vehicle-treated cells. SSPN-HiBiT myotubes were treated on day 2 and harvested on day 4 of differentiation. R.U.=relative units normalized to protein concentration and vehicle control (DMSO). n=18 for every compound concentration. *p<0.05; **p<0.01, ***p<0.001; ****p<0.0001
Comparison of activity of the new compound of coumarin series (DDL-491) with parent compound (DDL-472) and vehicle-treated cells. SSPN-HiBiT myotubes were treated on day 2 and harvested on day 4 of differentiation. R.U.=relative units normalized to protein concentration and vehicle control (DMSO). n=18 for every compound concentration. *p<0.05; ****p<0.0001
To assess activity of the new molecules, a C2C12 HiBiT assay was used as a primary screen. This assay is based on murine C2C12 cell line expressing endogenous SSPN protein with an N-term fusion protein described previously in WO 2022/055926.
Details on development of HiBiT assay for rapid testing of new analogues in vitro (FIG. 2A, B) are provided in PCT Pub. No. WO 2022/055926.

For the compound `O=C(Nc1ccc(C(=O)N2CCCOCC2)cc1)c1cc2ccccc2[nH]c1=O` [DDL-462], the “SSPN-HiBiT fold change over vehicle” value is given as ~1 fold.
Regarding `CC(C)N(c1ccc2cc(C(=O)Nc3ccc(C(=O)N4CCCOCC4)cc3)c(=O)oc2c1)C(C)C` [DDL-491], the “SSPN-HiBiT fold change over vehicle” value was 1.4 fold and the “activity in HiBiT assay” value is given as “active”.
For `COc1ccc2cc(C(=O)Nc3ccc(C(=O)N4CCCOCC4)cc3)c(=O)[nH]c2c1` [DDL-460], the “SSPN-HiBiT fold change over vehicle” value was found to be 1.1 fold.
Consider `O=C(Nc1ccc(C(=O)N2CCCOCC2)cc1)c1cc2cc(Br)ccc2[nH]c1=O` [DDL-496], for which the “SSPN-HiBiT fold change over vehicle” value is listed as 1.3 fold and the “activity in HiBiT assay” value was “active”.
For the compound `O=C(Nc1ccc(C(=O)N2CCCOCC2)cc1)c1cc2cc(F)ccc2[nH]c1=O` [DDL-463], the “SSPN-HiBiT fold change over vehicle” value is 1.4 fold and the “activity in HiBiT assay” value is “exhibit activity”.
As for `O=C(Nc1ccc(C(=O)N2CCCOCC2)cc1)c1cc2ccc(N3CCOCC3)cc2oc1=O` [DDL-482], the “SSPN-HiBiT fold change over vehicle” value is recorded as ~1 fold.
On the same count and under the same terms, the value for `O=C(Nc1ccc(C(=O)N2CCCOCC2)cc1)c1cc2ccc(F)cc2[nH]c1=O` [DDL-464] was ~1 fold.
Still for that read-out and setting: the value for `CC(C)Oc1ccc2cc(C(=O)Nc3ccc(C(=O)N4CCCOCC4)cc3)c(=O)oc2c1` [DDL-481] was ~0.9 fold; that for `C#CCN(CC)c1ccc2cc(C(=O)Nc3ccc(C(=O)N4CCCOCC4)cc3)c(=O)oc2c1` [DDL-489] was 1.2 fold; that for `COc1ccc2[nH]c(=O)c(C(=O)NC3=NNC(C(=O)N4CCCOCC4)N3)cc2c1` (stereo not drawn) [DDL-458] was ~1 fold.
`CC(=O)Nc1ccc2[nH]c(=O)c(C(=O)Nc3ccc(C(=O)N4CCCOCC4)cc3)cc2c1` [DDL-476]: the “SSPN-HiBiT fold change over vehicle” value is on record as ~1 fold.
Same read-out and setting: the value for `COc1ccc2[nH]c(=O)c(C(=O)Nc3c[nH]c(C(=O)N4CCCOCC4)n3)cc2c1` [DDL-459, N-(2-(1,4-oxazepane-4-carbonyl)-1H-imidazol-4-yl)-6-methoxy-2-oxo-1,2-dihydroquinoline-3-carboxamide] was ~1 fold; that for `CC(C)Oc1ccc2[nH]c(=O)c(C(=O)Nc3ccc(C(=O)N4CCCOCC4)cc3)cc2c1` [DDL-762] was 1.4 fold; that for `CN(C)c1ccc2cc(C(=O)Nc3ccc(C(=O)N4CCCOCC4)cc3)c(=O)oc2c1` [DDL-484] was 1.1 fold.
Still for that read-out and setting: as for `COc1cc2cc(C(=O)Nc3ccc(C(=O)N4CCCOCC4)cc3)c(=O)[nH]c2cc1OC` [DDL-461], the figure is 1.1 fold.
